These results are taken from article PMC5041457, “Synergy and antagonism in regulation of recombinant human INO80 chromatin remodeling complex” (Nucleic Acids Research, 2016).

Test [1] concerns the target T1, SC2 (Homo sapiens, UniProt Q9ULG1).
T1 construct: gene INO80; insect cells; with RuvB-like 1; RuvB-like 2
Put plainly: coupled NADH fluorescence ATPase assay (PK/LDH). In kind it is biochemical. The note with it: 1 mM ATP, 100 nM nucleosome, 37°C.

In test [2] the target is T2, hIno80ΔIes2 complex (Homo sapiens, UniProt Q9ULG1).
T2 construct: gene INO80
The note with it: basal, no nucleosome; ATP:MgCl2:TRIS base 1:1:2; 37°C.

For test [3], the target named is T3, hIno80 core complex (wild type) (Homo sapiens, UniProt Q9ULG1). Set-up: gene INO80. The note with it: basal, no nucleosome; ATP:MgCl2:TRIS base 1:1:2; 37°C.
From the text: coupled NADH fluorescence ATPase assay (PK/LDH) on hIno80 core complex (wild type)
For test [4], the target named is T3, hIno80 core complex (wild type). Put plainly: coupled NADH fluorescence ATPase assay (PK/LDH). The format is biochemical. Set-up: gene INO80; nine-subunit core, Ino80 267-1556 with N-terminal 8-His and C-terminal twin Strep-tag II; codon-optimised genes, BTI-TN-5B1-4 insect cells (MultiBac); calculated 743583 Da, SEC-MALS 802 kDa; actin gene not specified; Actin-like protein 6A; Actin-related protein 5; Actin-related protein 8; INO80 complex subunit B; INO80 complex subunit C; RuvB-like 1; RuvB-like 2. The conditions noted are these: 100 nM H2A nucleosome, ATP varied, 5 mM Mg2+, 37°C; non-competitive with ATP, competitive with nucleosomes; allosteric.

T1 sequence (Q9ULG1 487-1556): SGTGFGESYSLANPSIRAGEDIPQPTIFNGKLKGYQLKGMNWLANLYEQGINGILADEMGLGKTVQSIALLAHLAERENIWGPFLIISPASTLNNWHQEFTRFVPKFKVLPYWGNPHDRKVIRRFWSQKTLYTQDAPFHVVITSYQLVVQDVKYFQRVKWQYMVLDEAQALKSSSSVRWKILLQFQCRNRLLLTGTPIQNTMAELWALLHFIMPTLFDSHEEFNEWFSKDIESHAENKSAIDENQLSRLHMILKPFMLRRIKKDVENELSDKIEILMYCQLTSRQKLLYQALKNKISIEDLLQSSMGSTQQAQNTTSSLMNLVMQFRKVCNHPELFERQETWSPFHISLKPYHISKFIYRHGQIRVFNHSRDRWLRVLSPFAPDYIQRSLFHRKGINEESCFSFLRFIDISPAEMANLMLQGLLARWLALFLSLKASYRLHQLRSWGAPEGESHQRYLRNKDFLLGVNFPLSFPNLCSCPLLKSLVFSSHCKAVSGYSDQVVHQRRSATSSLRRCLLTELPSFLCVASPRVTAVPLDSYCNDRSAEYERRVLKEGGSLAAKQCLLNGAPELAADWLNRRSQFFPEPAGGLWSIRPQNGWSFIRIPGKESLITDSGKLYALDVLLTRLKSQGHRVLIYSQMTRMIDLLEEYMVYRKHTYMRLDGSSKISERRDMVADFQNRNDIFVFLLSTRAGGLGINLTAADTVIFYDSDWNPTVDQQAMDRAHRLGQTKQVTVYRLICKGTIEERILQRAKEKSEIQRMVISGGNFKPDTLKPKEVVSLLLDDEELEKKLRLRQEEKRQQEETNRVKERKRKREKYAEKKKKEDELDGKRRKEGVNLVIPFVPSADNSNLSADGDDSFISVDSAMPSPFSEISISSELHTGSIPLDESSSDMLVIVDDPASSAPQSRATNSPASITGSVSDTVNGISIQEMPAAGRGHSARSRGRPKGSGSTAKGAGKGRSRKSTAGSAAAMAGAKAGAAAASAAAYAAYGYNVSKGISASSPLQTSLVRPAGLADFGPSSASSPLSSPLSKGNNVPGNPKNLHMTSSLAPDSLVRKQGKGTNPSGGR
T1 sequence (Q9Y265 whole entry partner): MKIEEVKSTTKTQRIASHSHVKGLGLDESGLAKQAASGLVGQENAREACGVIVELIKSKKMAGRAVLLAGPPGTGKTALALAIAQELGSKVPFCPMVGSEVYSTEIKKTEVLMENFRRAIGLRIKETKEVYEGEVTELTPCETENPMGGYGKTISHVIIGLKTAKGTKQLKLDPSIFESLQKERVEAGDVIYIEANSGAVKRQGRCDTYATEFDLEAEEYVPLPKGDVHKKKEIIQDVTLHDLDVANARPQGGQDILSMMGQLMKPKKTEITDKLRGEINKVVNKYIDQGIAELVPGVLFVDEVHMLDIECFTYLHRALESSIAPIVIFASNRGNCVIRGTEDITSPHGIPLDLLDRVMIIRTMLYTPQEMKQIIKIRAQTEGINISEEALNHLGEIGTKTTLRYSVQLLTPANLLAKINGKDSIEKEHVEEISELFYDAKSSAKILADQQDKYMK
T1 sequence (Q9Y230 2-463 partner): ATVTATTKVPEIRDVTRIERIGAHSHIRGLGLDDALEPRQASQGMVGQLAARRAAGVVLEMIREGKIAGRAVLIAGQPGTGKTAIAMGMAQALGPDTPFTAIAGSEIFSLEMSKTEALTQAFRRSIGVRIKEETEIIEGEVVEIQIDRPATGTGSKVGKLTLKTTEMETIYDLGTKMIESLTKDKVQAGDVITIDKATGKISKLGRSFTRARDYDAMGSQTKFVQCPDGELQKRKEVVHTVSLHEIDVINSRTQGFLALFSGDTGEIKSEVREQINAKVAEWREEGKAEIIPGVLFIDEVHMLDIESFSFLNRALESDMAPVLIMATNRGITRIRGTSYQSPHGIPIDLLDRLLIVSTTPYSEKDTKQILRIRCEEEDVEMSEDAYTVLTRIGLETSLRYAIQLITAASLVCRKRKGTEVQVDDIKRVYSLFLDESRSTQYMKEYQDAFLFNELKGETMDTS

With `Nc1ncnc2c1ncn2[C@@H]1O[C@H](COP(=O)(O)OP(=O)(O)OP(=O)(O)O)[C@@H](O)[C@H]1O` [ATP], the “coupled NADH fluorescence ATPase assay (PK/LDH)” value in test [1] is “Single point inhibition of Ino80 and SC2”. For the same molecule, the Km (as a rule, the substrate concentration at which the rate is half of its maximum) in test [2] stood at 326 ± 44 µM; in test [3], 171 ± 55 µM.
Take `O=P(O)(O)O[C@H]1[C@H](OP(=O)(O)O)[C@@H](OP(=O)(O)O)[C@H](OP(=O)(O)O)[C@@H](OP(=O)(O)O)[C@H]1OP(=O)(O)O` [IP6]: in test [4], the Ki (usually a measure of affinity in units of concentration, obtained from inhibition or displacement) was 37 ± 4 µM.
